Reference: BindingDB's records for doi:10.1016/j.bmcl.2008.01.038 (Inspire Pharmaceuticals, 2008)

Test: Antagonist activity at P2Y12 receptor assessed as platelet aggregation by washed platelet assay

Compound | IC50 [µM]
CCNC(=O)Nc1ncnc2c1ncn2[C@@H]1O[C@H](COCc2ccc(C(=O)O)cc2)[C@H]2O[C@H](/C=C/c3ccccc3)O[C@H]21 | 1.31
CCNC(=O)Nc1ncnc2c1ncn2[C@@H]1O[C@H](COCc2cccc(C(=O)O)c2)[C@H]2O[C@H](/C=C/c3ccccc3)O[C@H]21 | 0.616
CCNC(=O)Nc1ncnc2c1ncn2[C@@H]1O[C@H](COCc2ccccc2C(=O)O)[C@H]2O[C@H](/C=C/c3ccccc3)O[C@H]21 | 0.04
CCNC(=O)Nc1ncnc2c1ncn2[C@@H]1O[C@H](CSCC(=O)O)[C@H]2O[C@H](/C=C/c3ccccc3)O[C@H]21 | 3.8
CCNC(=O)Nc1ncnc2c1ncn2[C@@H]1O[C@H](CNCc2ccccc2F)[C@H]2O[C@H](/C=C/c3ccccc3)O[C@H]21 | 2.55
CCNC(=O)Nc1ncnc2c1ncn2[C@@H]1O[C@H](CN(CC2CC2C(=O)O)CC2CC2C(=O)O)[C@H]2O[C@H](/C=C/c3ccccc3)O[C@H]21 (stereo partly specified) | 0.58
CCNC(=O)Nc1ncnc2c1ncn2[C@@H]1O[C@H](CNCC2CC2C(=O)OCC)[C@H]2O[C@H](/C=C/c3ccccc3)O[C@H]21 (stereo partly specified) | 4.33
CCNC(=O)Nc1ncnc2c1ncn2[C@@H]1O[C@H](CCC(=O)O)[C@H]2O[C@H](/C=C/c3ccccc3)O[C@H]21 | 0.495
CCNC(=O)Nc1ncnc2c1ncn2[C@@H]1O[C@H](C(=O)O)[C@H]2O[C@H](/C=C/c3ccccc3)O[C@H]21 | 0.201
CCNC(=O)Nc1ncnc2c1ncn2[C@@H]1O[C@H](CNC(=O)CO)[C@H]2O[C@H](/C=C/c3ccccc3)O[C@H]21 | 2.95
CCNC(=O)Nc1ncnc2c1ncn2[C@@H]1O[C@H](CNC(=O)c2ccco2)[C@H]2O[C@H](/C=C/c3ccccc3)O[C@H]21 | 4.86

Continued by falling IC50, values first:

IC50 [µM] | Compound
9.9 | CCNC(=O)Nc1ncnc2c1ncn2[C@@H]1O[C@H](CSCC(O)CO)[C@H]2O[C@H](/C=C/c3ccccc3)O[C@H]21 (stereo partly specified)
4.73 | CCNC(=O)Nc1ncnc2c1ncn2[C@@H]1O[C@H](CN)[C@H]2O[C@H](/C=C/c3ccccc3)O[C@H]21
2.7 | CCNC(=O)Nc1ncnc2c1ncn2[C@@H]1O[C@H](CNCC2CC2C(=O)O)[C@H]2O[C@H](/C=C/c3ccccc3)O[C@H]21 (stereo partly specified)
2.49 | CCNC(=O)Nc1ncnc2c1ncn2[C@@H]1O[C@H](CS(=O)(=O)CC(C)O)[C@H]2O[C@H](/C=C/c3ccccc3)O[C@H]21 (stereo partly specified)
2.48 | CCNC(=O)Nc1ncnc2c1ncn2[C@@H]1O[C@H](CS(=O)(=O)CC(=O)O)[C@H]2O[C@H](/C=C/c3ccccc3)O[C@H]21
2.23 | CCNC(=O)Nc1ncnc2c1ncn2[C@@H]1O[C@H](CNC(=O)c2cccs2)[C@H]2O[C@H](/C=C/c3ccccc3)O[C@H]21
1.27 | CCNC(=O)Nc1ncnc2c1ncn2[C@@H]1O[C@H](CO)[C@H]2O[C@H](/C=C/c3ccccc3)O[C@H]21
0.663 | CCNC(=O)Nc1ncnc2c1ncn2[C@@H]1O[C@H](CC(=O)O)[C@H]2O[C@H](/C=C/c3ccccc3)O[C@H]21
0.513 | CCNC(=O)Nc1ncnc2c1ncn2[C@@H]1O[C@H](CNCC(=O)O)[C@H]2O[C@H](/C=C/c3ccccc3)O[C@H]21
0.243 | CCNC(=O)Nc1ncnc2c1ncn2[C@@H]1O[C@H](COCC(=O)O)[C@H]2O[C@H](/C=C/c3ccccc3)O[C@H]21
